For experiment [1], the system named is human breast cancer cells. Nature of the experiment: Haptotactic migration of breast cancer cells towards fibronectin in a migration plate, migrated cells labeled with calcein-AM. The format is cell-based. The conditions noted are these: for inhibition of migration, dose dependence: sublethal concentration. As for the experimental part: (§1) After 18 hours, migrated cells were labeled with calcein-AM and fluorescence quantitated from the bottom. Nonmigrated cells were labeled with propidium iodide and fluorescence quantitated from the top. Estimation of 100% cell death was made by lysing cells in a test chamber with 1% Triton X-100 (TX 100) Error bars represent the standard deviation of 4-16 replicate test chambers. Asterisks represent a significant difference from migration without drugs (P<0.05). RFU=relative fluorescence units.
(§2) The cell suspension was added to the first chamber of a migration plate containing 96 chambers per plate at a concentration of about 80,000 cells per chamber. The migration plate used in this assay was manufactured by Polyfiltronics. Similar plates are available from Becton-Dickinson (U.S. Pat No. 5,801,055). The second chamber contained either haptotactic stimulus in the form of 20 μg/ml fibronectin or chemotactic in the form of 5% fetal calf serum. Cells were allowed to migrate in a humidified incubator at 37° C. and 5% carbon dioxide […].
(§3) During the last half hour of the incubation, calcein-AM (Molecular Probes, Eugene, Oreg.) was added to the second chamber to a final concentration of 5 μM and propidium iodide was added to the first chamber to a final concentration of 30 μM. At the end of the incubation the underside of the filters were washed twice in phosphate buffered saline. Fluorescence from each individual well chamber was measured from the bottom using 485 nm excitation and 530 nm emission filters.
(§4) Fluorescence from each individual well chamber was measured from the top using 560 nm excitation and 645 nm emission wavelength filters using a Tecan SpectraFluor fluorescent plate reader (Research Triangle Park NC). […] The asterisks represent a significant difference from positive control (p<0.05).

Experiment [2] deals with human breast cancer cells. As to the kind of experiment: Chemotactic migration of breast cancer cells towards serum in a migration plate, migrated cells labeled with calcein-AM. The conditions noted are these: highly metastatic breast cells; for inhibition at 20 µM: 20 μM drug. The format is cell-based. As for the experimental part: as §1, §2, §3, §4
[3] abbreviates: haptotactic and chemotactic migration.
Where [4] appears, read: Homo sapiens, serum stimulus, read-out: inhibition of chemotaxis.

SMILES strings stand for the structures.

The term inhibition denotes the share of the control response that was lost under treatment.

For the compound `NC(=O)c1nnn(Cc2cc(Cl)c(C(=O)c3ccc(Cl)cc3)c(Cl)c2)c1N` [CAI, carboxyamido-triazole], the inhibition of haptotaxis entry in experiment [1] (20 μM drug, fibronectin stimulus, highly metastatic breast cells) was “abolished haptotaxis”. Further, the inhibition at 10 µM in experiment [1] (Homo sapiens, 10 μM drug, fibronectin stimulus, highly metastatic breast cells, read-out: inhibition of haptotaxis) is 32%; in experiment [2] (Homo sapiens, 10 μM drug, serum stimulus, read-out: inhibition of chemotaxis), 7%. Also, in experiment [1] (setting [3]), the “effectiveness at halting migration, comparison of the two drugs” value is “more effective than tamoxifen at halting migration”. Also, the “inhibition of migration, dose dependence” value in experiment [1] (setting [3]) is reported as “inhibited migration in a dose-dependent manner at sublethal concentration”. The “haptotactic migration inhibition relative to concentrations causing cell death” value in experiment [1] (highly metastatic breast cells, FIGS. 3A, 3B) was “inhibited at lower concentrations than those that cause cell death”. In addition, in experiment [2] (setting [4]), the inhibition at 20 µM is 42%. In addition, the “chemotactic migration inhibition relative to concentrations causing cell death” value in experiment [2] (FIGS. 3A, 3B) was “inhibited at lower concentrations than those that cause cell death”.
For `CC/C(=C(\c1ccccc1)c1ccc(OCCN(C)C)cc1)c1ccccc1` [tamoxifen], the inhibition of haptotaxis entry in experiment [1] (10 μM drug, fibronectin stimulus, highly metastatic breast cells) is given as “non-significant inhibition”. The inhibition at 20 µM in experiment [1] (Homo sapiens, 20 μM drug, fibronectin stimulus, highly metastatic breast cells, read-out: inhibition of haptotaxis) was 51%; in experiment [2] (setting [4]) it was 9%. In addition, the “inhibition of migration, dose dependence” value in experiment [1] (setting [3]) is “inhibited migration in a dose-dependent manner at sublethal concentration”. Moreover, the inhibition of chemotaxis entry in experiment [2] (10 μM drug, serum stimulus) is listed as “non-significant inhibition”.

The record behind these values is patent US6448030B1, “Method for predicting the efficacy of anti-cancer drugs” (University of Nevada-Las Vegas, priority 2000, dated 2002).
